According to ChEMBL document CHEMBL6096674, “Design, Synthesis, and Anticancer Activity of Drug-like Iron Chelators/G-Quadruplex Binders as Synergic Dual Targeting Agents” (J Med Chem, 2025):
Active and inactive are the calls of the source. The calls are words filed in the database; no cut-off is given here.

Key:
Quadruplex DNA [1] = assay: Stabilization of human Hybrid Tel23 G4-quadruplex DNA (5'-TAGGGTTAGGGTTAGGGTTAGGG-3') assessed as change in melting temperature at 5 equiv. by CD melting based analysis; assay type: nucleic-acid assay
Quadruplex DNA [2] = assay: Stabilization of Hybrid Bcl2 G4-quadruplex DNA (5'-AGGGCGCGGGAGGAAGGGGGCGGGA-3') (unknown origin) assessed as change in melting temperature at 5 equiv. by CD melting based analysis; assay type: nucleic-acid assay
Hairpin duplex DNA [3] = assay: Stabilization of Hairpin duplex DNA (5'-CGCGAATTCGCGTTTCGCGAATTCGCG-3') (unknown origin) assessed as change in melting temperature at 5 equiv. by CD melting based analysis; assay type: nucleic-acid assay
Quadruplex DNA [4] = assay: Stabilization of Parallel c-Kit2 G4-quadruplex DNA (5'-CGGGCGGGCGCTAGGGAGGGT-3') (unknown origin) assessed as change in melting temperature at 5 equiv. by CD melting based analysis; assay type: nucleic-acid assay
Quadruplex DNA [5] = assay: Stabilization of Parallel c-Kit1 G4-quadruplex DNA (5'-AGGGAGGGCGCTGGGAGGAGGG-3') (unknown origin) assessed as change in melting temperature at 5 equiv. by CD melting based analysis; assay type: nucleic-acid assay
Quadruplex DNA [6] = assay: Stabilization of Parallel c-Myc G4-quadruplex DNA (5'-TGAGGGTGGGTAGGGTGGGTAA-3') (unknown origin) assessed as change in melting temperature at 5 equiv. by CD melting based analysis; assay type: nucleic-acid assay
A-375 = assay: Antiproliferative activity against human A-375 cells assessed as decrease in cell survival incubated for 48 hrs by MTT assay; assay type: functional, cell-based; settings: A-375, 48 h
[7] = Cytotoxicity against human HaCaT cells assessed as decrease in cell survival incubated for 48 hrs by MTT assay; assay type: toxicity, cell-based
[8] = Metal chelating activity assessed as free Fe2+ chelation by measuring decrease in cellular LIP content at IC50 measured after 48 hrs by red fluorescent probe based fluorescence microscopy
HCT-116 = assay: Antiproliferative activity against human HCT-116 cells assessed as decrease in cell survival incubated for 48 hrs by MTT assay; assay type: functional, cell-based; settings: HCT-116, 48 h
Jurkat [9] = assay: Antiproliferative activity against human Jurkat cells assessed as decrease in cell survival incubated for 48 hrs by MTT assay; assay type: functional, cell-based
MCF7 = assay: Antiproliferative activity against human MCF7 cells assessed as decrease in cell survival incubated for 48 hrs by MTT assay; assay type: functional, cell-based; settings: MCF7, 48 h
Jurkat [10] = assay: Antiproliferative activity human Jurkat cells assessed as reduction in cell number incubated for 48 hrs by phase contrast light microscopy; assay type: functional, cell-based; settings: dose 10-100 µM
[11] = Metal chelating activity assessed as affinity to Fe3+ at compound:iron concentration ratio of 3:1 and measured at pH 7.4
[12] = Metal chelating activity assessed as compound-Fe3+ complex formation at compound:iron concentration ratio of 2:1 and measured in acidic medium
Quadruplex DNA [13] = assay: Binding affinity to c-Myc G4-quadruplex DNA (5'-TGAGGGTGGGTAGGGTGGGTAA-3') (unknown origin) assessed as perturbations of imino protons of G8,G12,G17,G21 within middle G-tetrad at compound:G4 ratio of 2:1 by 1D 1H NMR analysis; assay type: nucleic-acid assay
[14] = Drug uptake in human Jurkat cells assessed as localization of compound in nuclear and perinuclear region at IC50 incubated for 24 hrs by NucSpot Live 488 probe based fluorescence microscopy; assay type: ADME, cell-based
Quadruplex DNA [15] = assay: Binding affinity to Cy5-labeled Bcl-2 G4-quadruplex DNA (Cy5-AGGGCGCGGGAGGAAGGGGGCGGGA-3') (unknown origin) assessed as equilibrium dissociation constant measured at 25 degC by microscale thermophoresis analysis; assay type: nucleic-acid assay
[16] = Metal chelating activity assessed as compound-Fe3+ complex formation at compound:iron concentration ratio of 3:1 and measured at pH 6 to 8
Hairpin duplex DNA [17] = assay: Binding affinity to Cy5-labeled Hairpin duplex DNA (Cy5-CGCGAATTCGCGTTTCGCGAATTCGCG-3') (unknown origin) assessed as equilibrium dissociation constant measured at 25 degC by microscale thermophoresis analysis; assay type: nucleic-acid assay
Quadruplex DNA [18] = assay: Binding affinity to c-Myc G4-quadruplex DNA (5'-TGAGGGTGGGTAGGGTGGGTAA-3') (unknown origin) assessed as perturbations of imino protons of G7,G11,G16,G20 within 5' G-tetrad at compound:G4 ratio of 2:1 by 1D 1H NMR analysis; assay type: nucleic-acid assay
Jurkat [19] = assay: Induction of apoptosis in human Jurkat cells assessed as induction of phosphotidylserine exposure at IC50 incubated for 48 hrs by fluorescence microscopy; assay type: functional, cell-based
Quadruplex DNA [20] = assay: Binding affinity to Cy5-labeled c-Myc G4-quadruplex DNA (Cy5-TGAGGGTGGGTAGGGTGGGTAA-3') (unknown origin) assessed as equilibrium dissociation constant measured at 25 degC by microscale thermophoresis analysis; assay type: nucleic-acid assay
Quadruplex DNA [21] = assay: Binding affinity to Cy5-labeled c-Kit2 G4-quadruplex DNA (Cy5-CGGGCGGGCGCTAGGGAGGGT-3') (unknown origin) assessed as equilibrium dissociation constant measured at 25 degC by microscale thermophoresis analysis; assay type: nucleic-acid assay
Quadruplex DNA [22] = assay: Binding affinity to Bcl-2 G4-quadruplex DNA (5'-AGGGCGCGGGAGGAAGGGGGCGGGA-3') (unknown origin) assessed as perturbations of imino protons of G8,G18 and G22 within middle G-tetrad with no significant change in aromatic proton regions upto compound:G4 ratio of 6:1 by ID IH NMR analysis; assay type: nucleic-acid assay
Quadruplex DNA [23] = assay: Binding affinity to c-Myc G4-quadruplex DNA (5'-TGAGGGTGGGTAGGGTGGGTAA-3') (unknown origin) assessed as perturbations of imino protons of G9,G13,G18,G22 within 3' G-tetrad at compound:G4 ratio of 2:1 by 1D 1H NMR analysis; assay type: nucleic-acid assay
Quadruplex DNA [24] = assay: Binding affinity to Bcl-2 G4-quadruplex DNA (5'-AGGGCGCGGGAGGAAGGGGGCGGGA-3') (unknown origin) assessed as perturbations of imino protons of G1,G17 and G21 within 5' G-tetrad with no significant change in aromatic proton regions upto compound:G4 ratio of 6:1 by ID IH NMR analysis; assay type: nucleic-acid assay
Quadruplex DNA [25] = assay: Binding affinity to human Cy5-labeled Tel23 G4-quadruplex DNA (Cy5-TAGGGTTAGGGTTAGGGTTAGGG-3') assessed as equilibrium dissociation constant measured at 25 degC by microscale thermophoresis analysis; assay type: nucleic-acid assay
Quadruplex DNA [26] = assay: Binding affinity to c-Myc G4-quadruplex DNA (5'-TGAGGGTGGGTAGGGTGGGTAA-3') (unknown origin) assessed as perturbations of aromatic protons of T23, A24 and A25 with no significant change in aromatic protons of loops at compound:G4 ratio of 2:1 by 1D 1H NMR analysis; assay type: nucleic-acid assay
Quadruplex DNA [27] = assay: Binding affinity to Bcl-2 G4-quadruplex DNA (5'-AGGGCGCGGGAGGAAGGGGGCGGGA-3') (unknown origin) assessed as perturbations of imino protons of G7,G19 and G23 within 3' G-tetrad with no significant change in aromatic proton regions upto compound:G4 ratio of 6:1 by ID IH NMR analysis; assay type: nucleic-acid assay
[28] = Metal chelating activity assessed as compound-Fe3+ complex formation at compound:iron concentration ratio of 1:1 and measured in acidic medium
Jurkat [29] = assay: Induction of apoptosis in human Jurkat cells assessed as reduction in Bcl-2 expression at IC50 incubated for 24 to 48 hrs by western blot analysis; assay type: functional, cell-based; settings: time 24-48 hrs

## O=C(NCc1ccccc1)c1ccc2[nH]c(=O)c3cc(=O)c(OCc4ccccc4)cn3c2c1
Quadruplex DNA [1]
  ΔTm: 1.2 °C
Quadruplex DNA [2]
  ΔTm: 3.6 °C
Hairpin duplex DNA [3]
  ΔTm: 0.3 °C
Quadruplex DNA [4]
  ΔTm: 7.5 °C
Quadruplex DNA [5]
  ΔTm: 0.1 °C
Quadruplex DNA [6]
  ΔTm: 3.7 °C

## CN(C)CCCNC(=O)c1ccc2[nH]c(=O)c3cc(=O)c(OCc4ccccc4)cn3c2c1
Quadruplex DNA [1]
  ΔTm: 5.1 °C
A-375
  IC50: > 200 µM
[7]
  IC50 at 48 h: > 200 µM
[8]
  Activity: inactive
Quadruplex DNA [2]
  ΔTm: 15.6 °C
HCT-116
  IC50: > 200 µM
Hairpin duplex DNA [3]
  ΔTm: 1.5 °C
Jurkat [9]
  IC50: 55 µM
Quadruplex DNA [4]
  ΔTm: 27.6 °C
Quadruplex DNA [5]
  ΔTm: 9.6 °C
MCF7
  IC50: > 200 µM
Quadruplex DNA [6]
  ΔTm: 12 °C
Jurkat [10]
  Activity: Dose-dependent-effect

## O=C(O)c1ccc2[nH]c(=O)c3cc(=O)c(OCc4ccccc4)cn3c2c1
Quadruplex DNA [1]
  ΔTm: 1 °C
Quadruplex DNA [2]
  ΔTm: 1.4 °C
Hairpin duplex DNA [3]
  ΔTm: 1 °C
Quadruplex DNA [4]
  ΔTm: 3.3 °C
Quadruplex DNA [5]
  ΔTm: -0.1 °C
Quadruplex DNA [6]
  ΔTm: 0.5 °C

## COc1cn2c(cc1=O)c(=O)[nH]c1ccc(C(=O)NCCCN(C)C)cc12
Quadruplex DNA [1]
  ΔTm: 4.2 °C
Quadruplex DNA [2]
  ΔTm: 13.5 °C
Hairpin duplex DNA [3]
  ΔTm: 1.8 °C
Quadruplex DNA [4]
  ΔTm: 17.3 °C
Quadruplex DNA [5]
  ΔTm: 9.3 °C
Quadruplex DNA [6]
  ΔTm: 5.9 °C

## Cc1c(O)c(=O)ccn1C
[11]
  pFe3+: 20

## O=C(NCCN1CCOCC1)c1ccc2[nH]c(=O)c3cc(=O)c(O)cn3c2c1
Quadruplex DNA [1]
  ΔTm: 2.3 °C
Quadruplex DNA [2]
  ΔTm: -0.5 °C
Hairpin duplex DNA [3]
  ΔTm: 2.8 °C
Quadruplex DNA [4]
  ΔTm: 5.5 °C
Quadruplex DNA [5]
  ΔTm: 2.2 °C
Quadruplex DNA [6]
  ΔTm: 1.7 °C

## O=C(NCCN1CCCC1)c1ccc2[nH]c(=O)c3cc(=O)c(O)cn3c2c1
Quadruplex DNA [1]
  ΔTm: 2.7 °C
Quadruplex DNA [2]
  ΔTm: 1.6 °C
Hairpin duplex DNA [3]
  ΔTm: 2.5 °C
Quadruplex DNA [4]
  ΔTm: 6.6 °C
Quadruplex DNA [5]
  ΔTm: 3.6 °C
Quadruplex DNA [6]
  ΔTm: 5 °C

## N=C(N)NCCCNC(=O)c1ccc2[nH]c(=O)c3cc(=O)c(O)cn3c2c1
Quadruplex DNA [1]
  ΔTm: 2.8 °C
Quadruplex DNA [2]
  ΔTm: 8.5 °C
Hairpin duplex DNA [3]
  ΔTm: 0.5 °C
Quadruplex DNA [4]
  ΔTm: 8.6 °C
Quadruplex DNA [5]
  ΔTm: 3.2 °C
Quadruplex DNA [6]
  ΔTm: 3.6 °C

## CN(C)CCCNC(=O)c1ccc2[nH]c(=O)c3cc(=O)c(O)cn3c2c1
[12]
  Activity: Active
Quadruplex DNA [1]
  ΔTm: 3.8 °C
A-375
  IC50: > 200 µM
[7]
  IC50 at 48 h: > 200 µM
[8]
  Activity: Active
Quadruplex DNA [13]
  Activity: Active
[14]
  Drug uptake: Active
[11]
  pFe3+: 16.8
Quadruplex DNA [2]
  ΔTm: 8.7 °C
HCT-116
  IC50: > 200 µM
Quadruplex DNA [15]
  Kd: 0.5 µM
[16]
  Activity: Active
Hairpin duplex DNA [17]
  Kd: > 20 µM
Quadruplex DNA [18]
  Activity: Active
Hairpin duplex DNA [3]
  ΔTm: 1.8 °C
Jurkat [19]
  Activity: Active
Jurkat [9]
  IC50: 30 µM
Quadruplex DNA [4]
  ΔTm: 10.1 °C
Quadruplex DNA [20]
  Kd: 0.3 µM
Quadruplex DNA [21]
  Kd: 1.1 µM
Quadruplex DNA [5]
  ΔTm: 5.5 °C
MCF7
  IC50: > 200 µM
Quadruplex DNA [22]
  Activity: Active
Quadruplex DNA [23]
  Activity: Active
Quadruplex DNA [6]
  ΔTm: 7.4 °C
Quadruplex DNA [24]
  Activity: Active
Quadruplex DNA [25]
  Kd: 3.1 µM
Quadruplex DNA [26]
  Activity: Active
Quadruplex DNA [27]
  Activity: Active
[28]
  Activity: Active
Jurkat [29]
  Activity: Active
Jurkat [10]
  Activity: Dose-dependent-effect
